Data: paper PMC3844262 (Journal of immunology (Baltimore, Md. : 1950), 2013)

Columns and labels:
[1] = tested on: GP34-A11R cross-reactive T cell lines (TCL #1, #3, #7); format: cell-based, C57BL/6 (B6) mice
H-2K^b = H-2K^b (Mus musculus, UniProt P01901); format: binding, murine
[2] = tested on: CD8+ T cells from acute day 8 LCMV-infected mice; format: cell-based, C57BL/6 (B6) mice

H-2K^b, sequence (P01901 whole entry, looked up): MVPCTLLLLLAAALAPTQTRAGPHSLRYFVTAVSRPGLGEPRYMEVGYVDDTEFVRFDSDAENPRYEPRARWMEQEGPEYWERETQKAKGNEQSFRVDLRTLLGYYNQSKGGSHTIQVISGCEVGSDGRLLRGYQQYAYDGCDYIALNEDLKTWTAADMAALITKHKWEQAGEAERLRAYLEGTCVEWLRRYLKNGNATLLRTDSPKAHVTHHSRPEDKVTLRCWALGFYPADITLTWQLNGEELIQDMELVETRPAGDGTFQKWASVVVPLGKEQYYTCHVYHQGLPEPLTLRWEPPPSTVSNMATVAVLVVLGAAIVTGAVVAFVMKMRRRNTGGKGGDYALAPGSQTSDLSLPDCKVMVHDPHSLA

Row | Sequence | CD8+ T cells responding (IFNγ), TCL #7 [1] | Tm of K^b-peptide complex (H-2K^b) [°C] | IFNγ production ex vivo, acute LCMV-infected mice (OVA hybrid experiment) [2] | IFNγ response, % of total CD8+ T cells [2]
1 | SIINFEKL [OVA] | does not cross-react | 51.5 | – | –
2 | SIINFAAL [OVA-AA] | not cross-reactive | – | not observed | –
3 | SIYRYYGL | – | – | – | not observed
